Laboratory results: patent US8921059B2, “Method and kit for detection of guaiacol-producing bacterium” (Calpis Co., Ltd., priority 2009, dated 2014)
Entries after “also recorded” stand apart in the source; their conditions may differ.

Legend:
[1] = test system: A. acidocaldarius ATCC27009; experiment: Colony formation of thermotolerant acidophilic bacteria on YSG agar medium containing the substrate (Example 1); assay type: cell-based, Alicyclobacillus acidocaldarius; set-up: key to detected level of colonies: ++: the detected level was at or above the level of the medium without a substrate (i.e. YSG medium); +: the detected level was lower than the level of the medium without a substrate; −: undetectable; settings: for detected level of colonies: cultivation at 45° C. for 3 days; for colonies detected: 45° C. for 3 days
Procedure: (§1) A YSG agar medium containing vanillin, vanillic acid or ferulic acid was used to study the colony formation of thermotolerant acidophilic bacteria (TAB). Four bacterial strains used were A. acidoterrestris ATCC49025, A. acidiphilus JCM21417, A. acidocaldarius ATCC27009 and A. pomorum JCM21459. Among these, A. acidoterrestris ATCC49025 and A. acidiphilus JCM21417 have been reported as the bacterial strains producing guaiacol. […] After cooling to about 50° C., pH was adjusted to 3.7 with 10% sulfuric acid and a plate medium was prepared. The suspensions of the respective bacterial strains were subjected to a heat-shock treatment at 70° C. for 20 min. The bacterial suspensions were serially diluted with phosphate buffered saline up to 10^3 CFU/mL and 100 μL from the dilutions was smeared on the plates for culture. Cultivation was carried out at 45° C. for 3 days before the colonies formed were visually inspected. Similar experiments were carried out with replacing vanillic acid with vanillin or ferulic acid. When the medium was not easily solidified, the amount of agar was appropriately adjusted.

[2] = test system: A. acidoterrestris ATCC49025; experiment: as above; assay type: cell-based, Alicyclobacillus acidoterrestris; set-up: key to detected level of colonies: ++: the detected level was at or above the level of the medium without a substrate (i.e. YSG medium); +: the detected level was lower than the level of the medium without a substrate; −: undetectable; settings: for detected level of colonies: cultivation at 45° C. for 3 days
Description: A YSG agar medium containing vanillin, vanillic acid or ferulic acid was used to study the colony formation of thermotolerant acidophilic bacteria (TAB). Four bacterial strains used were A. acidoterrestris ATCC49025, A. acidiphilus JCM21417, A. acidocaldarius ATCC27009 and A. pomorum JCM21459. Among these, A. acidoterrestris ATCC49025 and A. acidiphilus JCM21417 have been reported as the bacterial strains producing guaiacol. A YSG medium (Merck K.K., YGS Agar; 20.0 g) and vanillic acid (Wako Pure Chemical Industries, Ltd.; 0 to 250 mg) were dissolved in 1000 g of water with heating and subjected to autoclave sterilization (121° C. and 15 min.). After cooling to about 50° C., pH was adjusted to 3.7 with 10% sulfuric acid and a plate medium was prepared. The suspensions of the respective bacterial strains were subjected to a heat-shock treatment at 70° C. for 20 min. The bacterial suspensions were serially diluted with phosphate buffered saline up to 10^3 CFU/mL and 100 μL from the dilutions was smeared on the plates for culture. Cultivation was carried out at 45° C. for 3 days before the colonies formed were visually inspected. Similar experiments were carried out with replacing vanillic acid with vanillin or ferulic acid. When the medium was not easily solidified, the amount of agar was appropriately adjusted.

A. acidiphilus JCM21417 = experiment: as above; assay type: cell-based, Alicyclobacillus acidiphilus; set-up: key to detected level of colonies: ++: the detected level was at or above the level of the medium without a substrate (i.e. YSG medium); +: the detected level was lower than the level of the medium without a substrate; −: undetectable; settings: for detected level of colonies: cultivation at 45° C. for 3 days
Procedure: as §1

A. pomorum JCM21459 = experiment: as above; assay type: cell-based, Alicyclobacillus pomorum; set-up: key to detected level of colonies: ++: the detected level was at or above the level of the medium without a substrate (i.e. YSG medium); +: the detected level was lower than the level of the medium without a substrate; −: undetectable; settings: for detected level of colonies: cultivation at 45° C. for 3 days; for colonies detected: 45° C. for 3 days
Procedure: as §1

[3] = test system: A. acidoterrestris ATCC49025; experiment: Effects of culture temperature on the detection level of colonies (Example 2); assay type: cell-based, Alicyclobacillus acidoterrestris; settings: for number of colonies, relative value (YSG medium without any substrate at 45° C. for 3 days = 100): 75 ppm in YSG medium
Procedure: Effects of culture temperature on the detection level of colonies of A. acidoterrestris ATCC49025 were studied using YSG agar medium containing vanillin, vanillic acid or ferulic acid. […] The suspensions containing the same number of bacterial cells of A. acidoterrestris ATCC49025 were smeared on the plates and cultured at 45° C. or 30° C. A YSG medium without any substrate was used as a control. The values are expressed as relative values to the number of colonies obtained after cultivation at 45° C. for 3 days in a YSG medium without any substrate being regarded as 100.

[4] = used instead of vanillic acid, concentration not given

COc1cc(/C=C/C(=O)O)ccc1O [ferulic acid]
detected level of colonies ([1]; 25 ppm in YSG agar): −
detected level of colonies ([1]; 50 ppm in YSG agar): −
detected level of colonies ([1]; 75 ppm in YSG agar): −
detected level of colonies ([2]; 25 ppm in YSG agar): ++
detected level of colonies ([2]; 50 ppm in YSG agar): ++
detected level of colonies ([2]; 75 ppm in YSG agar): −
detected level of colonies (A. acidiphilus JCM21417; 25 ppm in YSG agar): ++
detected level of colonies (A. acidiphilus JCM21417; 50 ppm in YSG agar): −
detected level of colonies (A. acidiphilus JCM21417; 75 ppm in YSG agar): −
detected level of colonies (A. pomorum JCM21459; 25 ppm in YSG agar): −
detected level of colonies (A. pomorum JCM21459; 50 ppm in YSG agar): −
detected level of colonies (A. pomorum JCM21459; 75 ppm in YSG agar): −
detection sensitivity compared to the medium without any substrate ([3]; 25 ppm): improved
number of colonies at 30° C. for 5 days compared with 45° C. for 3 days [3, 4]: The same tendency was observed

COc1cc(C(=O)O)ccc1O [vanillic acid]
detected level of colonies ([1]; 10 ppm in YSG agar): ++
detected level of colonies ([1]; 50 ppm in YSG agar): −
detected level of colonies ([1]; 75 ppm in YSG agar): −
colonies detected ([1]; 75 ppm): no colony was detected
detected level of colonies ([1]; 100 ppm in YSG agar): −
colonies detected ([1]; 100 ppm): no colony was detected
detected level of colonies ([1]; 150 ppm in YSG agar): −
detected level of colonies ([1]; 200 ppm in YSG agar): −
detected level of colonies ([1]; 225 ppm in YSG agar): −
detected level of colonies ([1]; 250 ppm in YSG agar): −
detected level of colonies ([2]; 10 ppm in YSG agar): ++
detected level of colonies ([2]; 50 ppm in YSG agar): ++
detected level of colonies ([2]; 75 ppm in YSG agar): ++
colonies detected compared with medium without vanillic acid ([2]; 75 ppm, 45° C. for 3 days): the same level or more colonies were detected as in the medium without vanillic acid
detected level of colonies ([2]; 100 ppm in YSG agar): ++
colonies detected compared with medium without vanillic acid ([2]; 100 ppm, 45° C. for 3 days): the same level or more colonies were detected as in the medium without vanillic acid
detected level of colonies ([2]; 150 ppm in YSG agar): ++
colonies detected compared with medium without vanillic acid ([2]; 150 ppm, 45° C. for 3 days): detected at the same level as in the medium without vanillic acid
detected level of colonies ([2]; 200 ppm in YSG agar): ++
colonies detected compared with medium without vanillic acid ([2]; 200 ppm, 45° C. for 3 days): detected at the same level as in the medium without vanillic acid
detected level of colonies ([2]; 225 ppm in YSG agar): +
detection sensitivity of AAT ([2]; 225 ppm, 45° C. for 3 days): lower
detected level of colonies ([2]; 250 ppm in YSG agar): −
colonies detected ([2]; 250 ppm or more, 45° C. for 3 days): no colonies were detected
detected level of colonies (A. acidiphilus JCM21417; 10 ppm in YSG agar): ++
detected level of colonies (A. acidiphilus JCM21417; 50 ppm in YSG agar): ++
detected level of colonies (A. acidiphilus JCM21417; 75 ppm in YSG agar): ++
colonies detected compared with medium without vanillic acid (A. acidiphilus JCM21417; 75 ppm, 45° C. for 3 days): the same level or more colonies were detected as in the medium without vanillic acid
detected level of colonies (A. acidiphilus JCM21417; 100 ppm in YSG agar): −
colonies detected (A. acidiphilus JCM21417; 100 ppm, 45° C. for 3 days): no colony was detected
detected level of colonies (A. acidiphilus JCM21417; 150 ppm in YSG agar): −
detected level of colonies (A. acidiphilus JCM21417; 200 ppm in YSG agar): −
detected level of colonies (A. acidiphilus JCM21417; 225 ppm in YSG agar): −
detected level of colonies (A. acidiphilus JCM21417; 250 ppm in YSG agar): −
detected level of colonies (A. pomorum JCM21459; 10 ppm in YSG agar): ++
detected level of colonies (A. pomorum JCM21459; 50 ppm in YSG agar): −
detected level of colonies (A. pomorum JCM21459; 75 ppm in YSG agar): −
colonies detected (A. pomorum JCM21459; 75 ppm): no colony was detected
detected level of colonies (A. pomorum JCM21459; 100 ppm in YSG agar): −
colonies detected (A. pomorum JCM21459; 100 ppm): no colony was detected
detected level of colonies (A. pomorum JCM21459; 150 ppm in YSG agar): −
detected level of colonies (A. pomorum JCM21459; 200 ppm in YSG agar): −
detected level of colonies (A. pomorum JCM21459; 225 ppm in YSG agar): −
detected level of colonies (A. pomorum JCM21459; 250 ppm in YSG agar): −
detection sensitivity compared to the medium without any substrate ([3]; 50 ppm): improved
number of colonies, relative value (YSG medium without any substrate at 45° C. for 3 days = 100) ([3]; 30° C., 5 days): 186
number of colonies, relative value (YSG medium without any substrate at 45° C. for 3 days = 100) ([3]; 45° C., 3 days): 183
number of colonies at 30° C. for 5 days compared with 45° C. for 3 days ([3]; 75 ppm in solid medium): the same number of colonies is obtained; also recorded: almost the same number of colonies was detected
colonies detected compared to the medium without any substrate ([3]; 75 ppm, 45° C.): more colonies were detected

COc1cc(C=O)ccc1O [vanillin]
detected level of colonies ([1]; 500 ppm in YSG agar): −
detected level of colonies ([1]; 750 ppm in YSG agar): −
detected level of colonies ([1]; 900 ppm in YSG agar): −
detected level of colonies ([1]; 950 ppm in YSG agar): −
detected level of colonies ([1]; 1000 ppm in YSG agar): −
detected level of colonies ([2]; 500 ppm in YSG agar): ++
detected level of colonies ([2]; 750 ppm in YSG agar): ++
detected level of colonies ([2]; 900 ppm in YSG agar): ++
detected level of colonies ([2]; 950 ppm in YSG agar): ++
detected level of colonies ([2]; 1000 ppm in YSG agar): +
detected level of colonies (A. acidiphilus JCM21417; 500 ppm in YSG agar): +
detected level of colonies (A. acidiphilus JCM21417; 750 ppm in YSG agar): +
detected level of colonies (A. acidiphilus JCM21417; 900 ppm in YSG agar): +
detected level of colonies (A. acidiphilus JCM21417; 950 ppm in YSG agar): −
detected level of colonies (A. acidiphilus JCM21417; 1000 ppm in YSG agar): −
detected level of colonies (A. pomorum JCM21459; 500 ppm in YSG agar): −
detected level of colonies (A. pomorum JCM21459; 750 ppm in YSG agar): −
detected level of colonies (A. pomorum JCM21459; 900 ppm in YSG agar): −
detected level of colonies (A. pomorum JCM21459; 950 ppm in YSG agar): −
detected level of colonies (A. pomorum JCM21459; 1000 ppm in YSG agar): −
detection sensitivity compared to the medium without any substrate ([3]; 750 ppm): improved
number of colonies at 30° C. for 5 days compared with 45° C. for 3 days [3, 4]: The same tendency was observed
